Experimental data taken from ChEMBL document CHEMBL3137667, “[Drug-induced liver injury; fourteenth updated edition of the bibliographic database of liver injuries and related drugs]” (Gastroenterol Clin Biol, 2004).

Experiments:
[1] = human
[2] = human; remark: listed apart in the source
[3] = human; remark: listed apart in the source
[4] = human; remark: listed apart in the source
[5] = Times to onset, minimal and maximal, observed in the indexed observations. [column 'DELAI' in source]; conditions: human
[6] = human; remark: listed apart in the source
[7] = human; remark: listed apart in the source
[8] = Proposed mechanism(s) of liver damage. [column 'MEC' in source]; conditions: human
[9] = Highest frequency of acute liver toxicity observed during clinical trials, expressed as a percentage. [column '% AIGUE' in source]; conditions: human
[10] = human; remark: listed apart in the source
[11] = human, serum, 4383 h
[12] = Highest frequency of moderate liver toxicity observed during clinical trials, expressed as a percentage. [column '% BIOL' in source]; conditions: human
[13] = human; remark: listed apart in the source
[14] = Comments (NB not yet translated). [column 'COMMENTAIRES' in source]; conditions: human
[15] = human; remark: listed apart in the source
[16] = human, serum
[17] = human, serum; remark: listed apart in the source
[18] = human; remark: listed apart in the source
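For Hepatotoxicity (association with vascular disease) in this document: count of indexed literature references reporting vascular liver injury in humans, e.g. peliosis hepatitis, hepatic veno-occlusive disease or Budd-Chiari syndrome.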
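For Hepatotoxicity (benign tumour) in this document: value is a count of indexed literature references citing a benign tumour confirmed by histopathology.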
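For Hepatotoxicity (choleostasis) in this document: human cholestatic liver injury, shown by histopathology or by peak ALT or AST elevation over alkaline phosphatase ratio below 2, value counts indexed literature reports.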
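For Hepatotoxicity (chronic liver disease) in this document: chronic liver injury confirmed by histopathology or persistently raised serum aminotransferase activity beyond 6 months, value given as the count of indexed literature references.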
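For Hepatotoxicity (cirrhosis) in this document: value is a count of indexed literature references reporting cirrhosis confirmed by histopathology.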
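For Hepatotoxicity (cytolytic) in this document: human cytolytic liver injury, shown by histopathology or by a ratio above 5 of peak ALT or AST elevation to alkaline phosphatase elevation, value counts indexed references.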
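For Hepatotoxicity (granulomatous hepatitis) in this document: value is a count of indexed literature references reporting granulomatous liver disease confirmed by histopathology.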
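For Hepatotoxicity (malignant tumour) in this document: malignant tumour confirmed by histopathology, value gives the count of indexed literature references reporting it.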
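For Hepatotoxicity (severe hepatitis) in this document: human clinical data: severe hepatitis, meaning potentially life-threatening liver failure or clinically observed cases, the value counts how many indexed literature references report it.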
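For Hepatotoxicity (steatosis) in this document: steatosis confirmed by histopathology, value is the count of indexed references.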

Row | SMILES | Hepatotoxicity (choleostasis) [1] | Hepatotoxicity (malignant tumour) [2] | Hepatotoxicity (cirrhosis) [3] | Hepatotoxicity (severe hepatitis) [4] | Hepatotoxicity (time to onset) [5] | Hepatotoxicity (benign tumour) [6] | Hepatotoxicity (steatosis) [7] | Hepatotoxicity (mechanism) [8] | Hepatotoxicity (acute) [9] [%] | Hepatotoxicity (animal toxicity known) [10] | Hepatotoxicity (chronic liver disease) [11] | Hepatotoxicity (moderate) [12] [%] | Hepatotoxicity (association with vascular disease) [13] | Hepatotoxicity (comment) [14] | Hepatotoxicity (cytolytic) [15] | Hepatotoxicity (moderate) [16] | Hepatotoxicity (acute) [17] | Hepatotoxicity (granulomatous hepatitis) [18] | other results
1 | FC(F)OC(F)C(F)(F)F (stereo not drawn) | 0 | 0 | 0 | 3 | 1 day - 12 days | 0 | 0 | Reactive metabolite, Allergic | 0 | yes | 0 | 11.1 | 0 | AC_ANTI-TFA | 4 | 2 | 4 | 0 | –
2 | CC(=O)Oc1ccccc1C(=O)O [ASPIRIN] | 2 | 0 | 1 | 6 | 1 week - 5 years | 0 | 0 | Dose-dependant, Reactive metabolite | 0 | yes | 5 | 66 | 0 | #S.REYE | 26 | 30 | 31 | 3 | –
3 | CO/N=C(\C(=O)N[C@@H]1C(=O)N2C(C(=O)O)=C(CSc3nc(=O)c(=O)[nH]n3C)CS[C@H]12)c1csc(N)n1 [CEFTRIAXONE] | 2 | 0 | 0 | 0 | 2 days - 25 days | 0 | 0 | Dose-dependant | 4.6 | yes | 0 | 30 | 0 | PSEUDOLITHIASE | 3 | 71 | 7 | 0 | –
4 | O=C(O)c1cn(C2CC2)c2cc(N3CCNCC3)c(F)cc2c1=O [CIPROFLOXACIN] | 12 | 0 | 0 | – | 2 days - 6 months | 0 | 1 | Allergic, Dose-dependant | – | yes | 1 | – | 0 | DUCTOPENIE AC_ANTI-N/-ADN | 7 | 114 | 21 | 0 | Hepatotoxicity (severe hepatitis) ([4]; Liver): 5; Hepatotoxicity (acute) ([9]; Liver): 0.2%; Hepatotoxicity (moderate) ([12]; Liver): 46.4%
5 | CN(C)CCCN1c2ccccc2CCc2ccc(Cl)cc21 [CLOMIPRAMINE] | 2 | 0 | 0 | 0 | 1 week - 4 years | 0 | 0 | Allergic | 0 | yes | 0 | 10.7 | 0 | RC/AMINEPTINE | 3 | 11 | 6 | 0 | –
6 | CC(=O)[C@@]1(O)CC[C@H]2[C@@H]3C=C(Cl)C4=CC(=O)[C@@H]5C[C@@H]5[C@]4(C)[C@H]3CC[C@@]21C [CYPROTERONE] | 3 | 5 | 1 | 13 | 4 days - 10 years | 1 | 0 | Dose-dependant | 13 | yes | 1 | 20 | 0 | AC_ANTI-N/pCN | 20 | 4 | 21 | 0 | –
7 | O=c1[nH]cc(F)c(=O)[nH]1 [FLUOROURACIL] | 1 | 0 | 1 | 2 | 1 month - 1 year | 0 | 4 | Dose-dependant, Toxic Metabolite | 25 | yes | 0 | 61.2 | 1 | CHOLANGITE/IAH I/LEVAMISOLE | 2 | 15 | 4 | 0 | –
8 | C=COCC(F)(F)F [FLUROXENE] | 0 | 0 | 0 | 2 | 1 day - 5 days | 0 | 0 | Toxic Metabolite | 0 | yes | 0 | 30.4 | 0 | I/PHENOBARBITAL/PHENYTOINE | 3 | 2 | 4 | 0 | –
9 | CC1(C)S[C@@H]2[C@H](NC(=O)Cc3ccccc3)C(=O)N2[C@H]1C(=O)O [PENICILLIN G] | 9 | 0 | 0 | 1 | 0.5 hour - 18 days | 0 | 0 | Allergic | 0 | yes | 1 | 13.2 | 0 | CHOLESTASE_PROLONGEE CHOLANGITE AC_ANTI-N | 5 | 9 | 17 | 3 | –
10 | CC1=C(/C=C/C(C)=C/C=C/C(C)=C/CO)C(C)(C)CCC1 [RETINOL] | – | 0 | 22 | – | 11 days - 17.5 years | 0 | 22 | – | – | yes | 26 | – | 10 | I/ALCOOL | – | 8 | 0 | – | Hepatotoxicity (choleostasis) ([1]; Liver): 0; Hepatotoxicity (severe hepatitis) ([4]; Liver): 1; Hepatotoxicity (mechanism) ([8]; Liver): Dose-dependant; Hepatotoxicity (acute) ([9]; Liver): 0%; Hepatotoxicity (moderate) ([12]; Liver): 33%; Hepatotoxicity (cytolytic) ([15]; Liver): 0; Hepatotoxicity (granulomatous hepatitis) ([18]; Liver): 0
11 | CC(=O)N[C@H]1[C@@H](O[C@H]2[C@H](O)[C@@H](O)[C@H](O[C@H]3[C@H](CS(=O)(=O)O)[C@@H](OS(=O)(=O)O)[C@@H](O[C@H]4[C@H](O)[C@@H](OS(=O)(=O)O)C(O)O[C@H]4C(=O)O)O[C@@H]3O)O[C@@H]2C(=O)O)O[C@H](COS(=O)(=O)O)[C@@H](O)[C@@H]1O (stereo partly drawn) [SODIUM HEPARIN] | 1 | 0 | 0 | 1 | 2 days - 2 weeks | 0 | 0 | Dose-dependant | 0 | yes | 0 | 90 | 0 | RUPTURE_HEPATIQUE | 3 | 20 | 4 | 0 | –
